Results as given in patent US8614366B2, “Methods for genetic plant transformation using water-soluble fullerene derivatives” (priority 2009, dated 2013).
“Also recorded” adds a separate entry of the source.

Tests used:
peanut = settings: increased from 3.9% with no antioxidant; cited from earlier work
CAMBIA 1302 plasmid = assay: DNA binding by agarose gel electrophoresis (gel mobility); settings: 50 ng plasmid, 100-300 ng fullerene compound, preincubated 15-30 minutes
Method: Each tube was allowed to bind for 15-30 minutes and then place on an agarose gel. […] After running the gel, the bands were visualized using post-staining with commercial SBER SAFE™ 10000× stain.
DNA binding was measured at different fullerene nanoparticle/DNA ratios. The DNA-binding ability of the fullerene test compounds 1, 2, 4, and 6 was examined by direct DNA binding and agarose gel electrophoresis. […] In each case, 50 ng plasmid DNA was preincubated for 30 minutes with 100-300 nG fullerene compound (FIG. 8). The DNA binding titration of plasmid pCAMBIA 1302 with compound 6 was carried with 50 nG pCAMBIA 1302 and various concentrations (93-3000 nG per 10 microL). Results shown in FIG. 8 indicate optimal binding at a concentration of ˜5-6 equivalents fullerene per DNA. FIG. 8 Lane 1: 50 ng of DNA Plasmid DNA only, Lane 2: 50 ng of DNA Plasmid DNA+3000 ng compound 6 (50 equiv), Lane 3: 50 ng of DNA Plasmid DNA+1500 ng compound 6 (25 equiv), Lane 4: 50 ng of DNA Plasmid DNA+750 ng compound 6 (12 equiv), Lane 5: 50 ng of DNA Plasmid DNA+375 ng compound 6 (6 equiv), Lane 6: 50 ng of DNA Plasmid DNA+187 ng compound 6 (3 equiv), Lane 7: 50 ng of DNA Plasmid DNA+93 ng compound 6 (1.5 equiv). Compound 6 stock solution (0.3 mg/mL) was diluted with TE buffer and 10 microL each fullerene dilution was reincubated with plasmid for […] to loading on the gel.

tobacco protoplast cells = assay: Fullerene-enhanced electroporation, GFP expression; type: cell-based, Nicotiana tabacum; settings: tobacco protoplasts, GFP DNA, fluorescence microscope; without fullerene no GFP expression
Method: One embodiment of the invention is called fullerene-enhanced electroporation. The method comprises (1) mixing fullerene derivative solution with the DNA of interest, (2) addition of fullerene derivative/DNA solution to plant cells or plant protoplasts, and (3) treatment of the mixture in a Gene Pulser cuvette or similar electroporation apparatus for a few minutes. Suspension was then incubated for 2-3 hours or overnight to allow DNA transfer and gene expression to take place. […] On the left is the light microscope picture showing tobacco protoplast cells after electroporation. […] Experiments to test the fullerene nanoparticles for transformation ability used tobacco protoplasts for transient assays. Sterile suspension cultures (5% w/v) of tobacco (Nicotiana tabacum) were grown in MS basal salts media. Suspension cells were incubated in enzyme solution (0.6 M mannitol, 10 mM MES, 1% Cellulase, 0.2% pectinase) at pH 5.7 in the dark, at 24° C. overnight. After incubation, protoplasts were passed through […] nylon mesh, washed and protoplasts pelleted by centrifugation. Protoplasts were resuspended in the appropriate media required for transformation studies. Electroporation is the process where cells are mixed with a DNA construct and then briefly exposed to pulses of high voltage. […]

N[C@@H](CCC(=O)N[C@@H](CS)C(=O)NCC(=O)O)C(=O)O [glutathione]
Transformation frequencies (peanut): 14.6%

O=[Se](O)O [selenite]
Transformation frequencies (peanut): 12.4%

FC4S [Compound 2]
DNA binding (change in gel mobility) (CAMBIA 1302 plasmid): no DNA binding effect; also recorded: no binding to DNA

polyhydroxy-C60 [Compound 1]
DNA binding (change in gel mobility) (CAMBIA 1302 plasmid): no DNA binding effect; also recorded: no binding to DNA
GFP expression after electroporation (tobacco protoplast cells): gene insertion and GFP expression

tocopherol
Transformation frequencies (peanut): 10.3%
